Assays:
[1] = target: T1, CYP1A2 (Homo sapiens, UniProt P05177); assay: Regioselectivity and inter-/intramolecular KIE for 4-methylanisole (Table 15); format: in vitro ADME
T1 sequence (P05177 1-516): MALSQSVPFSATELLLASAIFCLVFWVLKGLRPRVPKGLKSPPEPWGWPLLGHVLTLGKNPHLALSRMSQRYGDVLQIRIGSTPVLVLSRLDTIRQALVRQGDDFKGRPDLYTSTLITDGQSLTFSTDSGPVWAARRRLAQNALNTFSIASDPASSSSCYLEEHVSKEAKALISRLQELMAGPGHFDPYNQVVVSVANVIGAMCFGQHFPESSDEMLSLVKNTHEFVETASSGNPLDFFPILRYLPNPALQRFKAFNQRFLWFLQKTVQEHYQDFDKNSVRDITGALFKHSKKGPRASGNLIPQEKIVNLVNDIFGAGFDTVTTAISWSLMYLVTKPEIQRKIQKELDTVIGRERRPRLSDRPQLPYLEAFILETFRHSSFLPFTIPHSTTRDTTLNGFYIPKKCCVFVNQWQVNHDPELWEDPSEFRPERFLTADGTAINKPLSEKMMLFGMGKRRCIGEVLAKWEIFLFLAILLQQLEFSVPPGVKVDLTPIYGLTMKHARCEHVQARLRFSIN

[2] = target: T2, CYP2B1 (Rattus norvegicus, UniProt P00176); assay: in vitro
T2 sequence (P00176 1-491): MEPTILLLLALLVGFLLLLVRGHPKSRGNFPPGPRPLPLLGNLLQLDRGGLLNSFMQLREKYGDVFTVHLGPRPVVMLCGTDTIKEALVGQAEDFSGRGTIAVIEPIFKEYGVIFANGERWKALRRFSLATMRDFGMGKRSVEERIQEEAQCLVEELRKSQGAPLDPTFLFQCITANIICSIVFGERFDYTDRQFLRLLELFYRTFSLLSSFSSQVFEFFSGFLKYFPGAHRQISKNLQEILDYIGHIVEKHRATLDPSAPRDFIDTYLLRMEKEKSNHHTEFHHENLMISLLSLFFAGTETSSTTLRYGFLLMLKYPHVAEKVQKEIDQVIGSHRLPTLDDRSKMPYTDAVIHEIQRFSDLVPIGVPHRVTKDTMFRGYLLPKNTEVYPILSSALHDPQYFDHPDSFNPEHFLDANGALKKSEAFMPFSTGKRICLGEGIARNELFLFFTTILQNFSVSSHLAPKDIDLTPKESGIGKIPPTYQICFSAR

Row | Structure (SMILES) | Intermolecular KIE ([1]; CYP1A2 (Table 15)) | Intramolecular KIE ([1]; CYP1A2 (Table 15)) | δΔG^† ([1]; CYP1A2, benzylic oxidation vs O-dealkylation) | selectivity ratio ([2]; pH 7.4, Regioselectivity BzH:Arom) | selectivity ratio ([2]; pH 7.4, Regioselectivity BzH:ODAlk)
1 | COc1ccc(C)cc1 [p-Methylanisole, p-methylanisole] | 5.94 | 3.79 | 1.82 kcal/mol | – | –
2 | COc1ccccc1C [o-Methylanisole, o-methylanisole] | – | – | – | 0.31 | 1.2

Source: US6643591B1, “Use of computational and experimental data to model organic compound reactivity in cytochrome P450 mediated reactions and to optimize the design of pharmaceuticals” (University of Pittsburgh, priority 1998, dated 2003)
